Laboratory results published in ChEMBL document CHEMBL4665723, “Evaluation of the effect of synthetic compounds derived from azidothymidine on MDA-MB-231 type breast cancer cells” (Bioorg Med Chem Lett, 2020).
The source made the active and inactive calls. The rule behind the calls is not given here.

Assays:
MDA-MB-231 [1] = test: Induction of cell cycle arrest in human MDA-MB-231 cells assessed as accumulation in G0/G1 phase at 12.5 uM incubated for 48 hrs by PI staining based flow cytometric analysis (reference value: 51.75%); type: functional
MDA-MB-231 [2] = test: Induction of cell cycle arrest in human MDA-MB-231 cells assessed as accumulation in G2/M phase at 12.5 uM incubated for 48 hrs by PI staining based flow cytometric analysis (reference value: 19.7%); type: functional
MDA-MB-231 [3] = test: Antiproliferative activity against human MDA-MB-231 cells at >12.5 uM incubated for 48 hrs by MTT assay; type: functional, cell-based; settings: dose microM >12.5, time 48.0 hrs
MDA-MB-231 [4] = test: Antiproliferative activity against human MDA-MB-231 cells incubated for 24 hrs by MTT assay; type: functional, cell-based; settings: MDA-MB-231, 24 h
MDA-MB-231 [5] = test: Induction of apoptosis in human MDA-MB-231 cells assessed as early apoptotic cells at 12.5 uM incubated for 48 hrs by AnnexinV and 7AAD staining based flow cytometric analysis; type: functional, cell-based
5637 = test: Antiproliferative activity against human 5637 cells assessed as inhibition of cell growth incubated for 24 hrs by MTT assay; type: functional, cell-based; settings: Homo sapiens, 5637, 24 h
MDA-MB-231 [6] = test: Induction of apoptosis in human MDA-MB-231 cells assessed as late apoptotic cells at 12.5 uM incubated for 48 hrs by AnnexinV and 7AAD staining based flow cytometric analysis; type: functional, cell-based
MDA-MB-231 [7] = test: Antiproliferative activity against human MDA-MB-231 cells assessed as inhibition of cell growth at >25 uM incubated for 24 hrs by MTT assay relative to control; type: functional; settings: dose microM >25
MDA-MB-231 [8] = test: Antiproliferative activity against human MDA-MB-231 cells incubated for 48 hrs by MTT assay; type: functional, cell-based; settings: MDA-MB-231, 48 h
MDA-MB-231 [9] = test: Induction of cell cycle arrest in human MDA-MB-231 cells assessed as accumulation in S phase at 12.5 uM incubated for 48 hrs by PI staining based flow cytometric analysis (reference value: 19.35%); type: functional
MDA-MB-231 [10] = test: Antiproliferative activity against human MDA-MB-231 cells at 6.25 to 100 uM incubated for 24 to 48 hrs by MTT assay; type: functional, cell-based; settings: dose microM 6.25-100, time hrs 24-48
MCF7 = test: Antiproliferative activity against human MCF7 cells assessed as inhibition of cell growth; type: functional, cell-based

SMILES	Activity (MDA-MB-231 [1])	Activity (MDA-MB-231 [2])	Activity (MDA-MB-231 [3])	IC50 (MDA-MB-231 [4])	Activity (MDA-MB-231 [5])	IC50 5637	Activity (MDA-MB-231 [6])	inhibition (INH) (MDA-MB-231 [7])	IC50 (MDA-MB-231 [8])	Activity (MDA-MB-231 [9])	Activity (MDA-MB-231 [10])	IC50 (MCF7)
Cc1cn([C@H]2C[C@H](n3cc(CCCO)nn3)[C@@H](C[Te]c3ccccc3)O2)c(=O)[nH]c1=O	44.9%	19.95%	Active	21.6 µM	inactive	1.99 µM	inactive	50%	9.62 µM	28.2%	–	–
Cc1cn([C@H]2C[C@H](N=[N+]=[N-])[C@@H](CO)O2)c(=O)[nH]c1=O	–	–	–	–	–	–	–	–	–	–	inactive	–
CNCCC(Oc1ccc(C(F)(F)F)cc1)c1ccccc1 (configuration not stated) [FLUOXETINE]	–	–	–	–	–	–	–	–	–	–	–	0.01 µM
Cc1cn([C@H]2C[C@H](n3cc(CO)nn3)[C@@H](C[Te]c3ccccc3)O2)c(=O)[nH]c1=O	40.55%	16.9%	Active	24.9 µM	inactive	8.09 µM	inactive	50%	11.8 µM	27.3%	–	–
